In patent publication US20250145633A1, “SUBSTITUTED FURANOPYRIMIDINE COMPOUNDS AS PDE1 INHIBITORS” (Dart NeuroScience, LLC, priority 2017, published 2025):

Biological target: human PDE1B enzyme (Homo sapiens (Human), UniProt Q01064)
Assay: IMAP TR-FRET PDE1B enzymatic assay
Assay type: biochemical
Settings: negative log of half-maximal molar inhibitory concentration, 200 nM FAM-cAMP, values given as bins; for IC50: read-out: PDE1b (pIC50) (converted)
Outline: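 Full-length GST-tagged human PDE1B (250 pg/well) in IMAP BSA buffer with 10 U/ml calmodulin and 2.5 mM CaCl2; compound pre-incubated 5 min at room temperature, then 200 nM (final) FAM-cAMP for 30 min. IMAP binding reagent/Tb added, 1 h; TR-FRET 520/490 ratio read. IC50 from sigmoidal dose-response fit.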

SMILES | PDE1b (pIC50) | IC50
Cc1oc2ncnc(NC3(C)CC3)c2c1C(=O)N1CCC(c2ncc(F)cc2Cl)CC1 [Example 334, 5-[4-(3-Chloro-5-fluoropyridin-2-yl)piperidine-1-carbonyl]-6-methyl-N-(1-methylcyclopropyl)furo[2,3-d]pyrimidin-4-amine] | >8 | –
Cc1oc2ncnc(NC3(C)CC3)c2c1C(=O)N1CCC(c2ncc(Cl)cn2)C1 (centres unmarked) [Example 335, 5-[3-(5-Chloropyrimidin-2-yl)pyrrolidine-1-carbonyl]-6-methyl-N-(1-methylcyclopropyl)furo[2,3-d]pyrimidin-4-amine] | >8 | –
COc1cc(CNC(=O)c2c(C)oc3ncnc(NC4(C)CC4)c23)ccc1F [Example 336, N-[(4-Fluoro-3-methoxyphenyl)methyl]-6-methyl-4-[(1-methylcyclopropyl)amino]furo[2,3-d]pyrimidine-5-carboxamide] | – | 10 to 100 nM
Cc1oc2ncnc(NC3(C)CC3)c2c1C(=O)N1CCc2c(cc[nH]c2=O)C1 [Example 337, 6-{6-Methyl-4-[(1-methylcyclopropyl)amino]furo[2,3-d]pyrimidine-5-carbonyl}-1,2,5,6,7,8-hexahydro-2,6-naphthyridin-1-one] | – | 10 to 100 nM
Cc1oc2ncnc(NC3(C)CC3)c2c1C(=O)N1CCc2ccc(O)cc2C1C (centres unmarked) [Example 338, 1-Methyl-2-{6-methyl-4-[(1-methylcyclopropyl)amino]furo[2,3-d]pyrimidine-5-carbonyl}-1,2,3,4-tetrahydroisoquinolin-7-ol] | >8 | –
Cc1oc2ncnc(NC3(C)CC3)c2c1C(=O)N1CCC(c2cncc(F)c2)C1 (centres unmarked) [Example 339, 5-[3-(5-Fluoropyridin-3-yl)pyrrolidine-1-carbonyl]-6-methyl-N-(1-methylcyclopropyl)furo[2,3-d]pyrimidin-4-amine] | – | 10 to 100 nM
Cc1oc2ncnc(NC3(C)CC3)c2c1C(=O)N1CCc2c(ncnc2NC2CC2)C1 [Example 342, 5-[4-(Cyclopropylamino)-5H,6H,7H,8H-pyrido[3,4-d]pyrimidine-7-carbonyl]-6-methyl-N-(1-methylcyclopropyl)furo[2,3-d]pyrimidin-4-amine] | – | 10 to 100 nM
Cc1oc2ncnc(NC3(C)CC3)c2c1C(=O)N1CCc2c(ncnc2NCC2CC2)C1 [Example 343, 5-{4-[(Cyclopropylmethyl)amino]-5H,6H,7H,8H-pyrido[3,4-d]pyrimidine-7-carbonyl}-6-methyl-N-(1-methylcyclopropyl)furo[2,3-d]pyrimidin-4-amine] | >8 | –
Cc1oc2ncnc(NC3(C)CC3)c2c1C(=O)N1CCC(c2ncc(Cl)cn2)CC1 [Example 344, 5-[4-(5-Chloropyrimidin-2-yl)piperidine-1-carbonyl]-6-methyl-N-(1-methylcyclopropyl)furo[2,3-d]pyrimidin-4-amine] | >8 | –
COc1ccnc(C2CCN(C(=O)c3c(C)oc4ncnc(NC5(C)CC5)c34)CC2)n1 [Example 345, 5-[4-(4-Methoxypyrimidin-2-yl)piperidine-1-carbonyl]-6-methyl-N-(1-methylcyclopropyl)furo[2,3-d]pyrimidin-4-amine] | >8 | –
Cc1oc2ncnc(NC3(C)CC3)c2c1C(=O)N1CCC(c2ccc(O)cc2)C1 (centres unmarked) [Example 346, 4-(1-{6-Methyl-4-[(1-methylcyclopropyl)amino]furo[2,3-d]pyrimidine-5-carbonyl}pyrrolidin-3-yl)phenol] | >8 | –
Cc1oc2ncnc(NC3(C)CC3)c2c1C(=O)N1CCC(O)(c2ccccc2)C1 (centres unmarked) [Example 347, 1-{6-Methyl-4-[(1-methylcyclopropyl)amino]furo[2,3-d]pyrimidine-5-carbonyl}-3-phenylpyrrolidin-3-ol] | – | 10 to 100 nM
Cc1oc2ncnc(NC3(C)CC3)c2c1C(=O)N1CCC(c2ccc(Cl)cn2)C1 (centres unmarked) [Example 348, 5-[3-(5-Chloropyridin-2-yl)pyrrolidine-1-carbonyl]-6-methyl-N-(1-methylcyclopropyl)furo[2,3-d]pyrimidin-4-amine] | >8 | –
Cc1oc2ncnc(NC3(C)CC3)c2c1C(=O)NC1(c2ncccn2)CC1 [Example 349, 6-Methyl-4-[(1-methylcyclopropyl)amino]-N-[1-(pyrimidin-2-yl)cyclopropyl]furo[2,3-d]pyrimidine-5-carboxamide] | – | 10 to 100 nM
Cc1cc(C(C)NC(=O)c2c(C)oc3ncnc(NC4(C)CC4)c23)no1 (centres unmarked) [Example 350, 6-Methyl-N-[1-(5-methyl-1,2-oxazol-3-yl)ethyl]-4-[(1-methylcyclopropyl)amino]furo[2,3-d]pyrimidine-5-carboxamide] | – | 10 to 100 nM
Cc1oc2ncnc(NC3(C)CC3)c2c1C(=O)N1CCC(c2nc(Cl)ncc2F)CC1 [Example 351, 5-[4-(2-Chloro-5-fluoropyrimidin-4-yl)piperidine-1-carbonyl]-6-methyl-N-(1-methylcyclopropyl)furo[2,3-d]pyrimidin-4-amine] | >8 | –

SMILES | PDE1b (pIC50) | IC50
Cc1oc2ncnc(NC3(C)CC3)c2c1C(=O)NCc1cc(-c2cnn(C)c2)on1 [Example 352, 6-Methyl-N-{[5-(1-methyl-1H-pyrazol-4-yl)-1,2-oxazol-3-yl]methyl}-4-[(1-methylcyclopropyl)amino]furo[2,3-d]pyrimidine-5-carboxamide] | – | 10 to 100 nM
Cc1oc2ncnc(NC3(C)CC3)c2c1C(=O)NC1(CO)CCC1 [Example 353, N-[1-(Hydroxymethyl)cyclobutyl]-6-methyl-4-[(1-methylcyclopropyl)amino]furo[2,3-d]pyrimidine-5-carboxamide] | – | 10 to 100 nM
Cc1oc2ncnc(NC3(C)CC3)c2c1C(=O)N1CC(c2cccc(F)n2)C1 [Example 354, 5-[3-(6-Fluoropyridin-2-yl)azetidine-1-carbonyl]-6-methyl-N-(1-methylcyclopropyl)furo[2,3-d]pyrimidin-4-amine] | >8 | –
Cc1oc2ncnc(NC3(C)CC3)c2c1C(=O)N1CCC(c2ncc(O)cn2)CC1 [Example 355, 2-(1-{6-Methyl-4-[(1-methylcyclopropyl)amino]furo[2,3-d]pyrimidine-5-carbonyl}piperidin-4-yl)pyrimidin-5-ol] | >8 | –
Cc1oc2ncnc(NC3(C)CC3)c2c1C(=O)N1CCC(c2ncc(F)cn2)CC1 [Example 356, 5-[4-(5-Fluoropyrimidin-2-yl)piperidine-1-carbonyl]-6-methyl-N-(1-methylcyclopropyl)furo[2,3-d]pyrimidin-4-amine] | – | 10 to 100 nM
Cc1oc2ncnc(NC3(C)CC3)c2c1C(=O)N1CCN(c2ncc(F)cn2)CC1C (centres unmarked) [Example 357, 5-[4-(5-Fluoropyrimidin-2-yl)-2-methylpiperazine-1-carbonyl]-6-methyl-N-(1-methylcyclopropyl)furo[2,3-d]pyrimidin-4-amine] | – | 10 to 100 nM
Cc1oc2ncnc(NC3(C)CC3)c2c1C(=O)N1CCN(c2ncc(F)cn2)C(C)C1 (centres unmarked) [Example 358, 5-[4-(5-Fluoropyrimidin-2-yl)-3-methylpiperazine-1-carbonyl]-6-methyl-N-(1-methylcyclopropyl)furo[2,3-d]pyrimidin-4-amine] | – | 10 to 100 nM
Cc1oc2ncnc(NC3(C)CC3)c2c1C(=O)N1CCN(c2ccc(S(C)(=O)=O)cc2F)CC1 [Example 359, 5-[4-(2-Fluoro-4-methanesulfonylphenyl)piperazine-1-carbonyl]-6-methyl-N-(1-methylcyclopropyl)furo[2,3-d]pyrimidin-4-amine] | – | 10 to 100 nM
Cc1cnc(C2CCN(C(=O)c3c(C)oc4ncnc(NC5(C)CC5)c34)CC2)nc1 [Example 360, 6-Methyl-N-(1-methylcyclopropyl)-5-[4-(5-methylpyrimidin-2-yl)piperidine-1-carbonyl]furo[2,3-d]pyrimidin-4-amine] | >8 | –
COc1cccc(C2CCN(C(=O)c3c(C)oc4ncnc(NC5(C)CC5)c34)C2)c1 (centres unmarked) [Example 361, 5-[3-(3-Methoxyphenyl)pyrrolidine-1-carbonyl]-6-methyl-N-(1-methylcyclopropyl)furo[2,3-d]pyrimidin-4-amine] | >8 | –
Cc1oc2ncnc(NC3(C)CC3)c2c1C(=O)N1CCN(c2nc(Cl)ncc2F)CC1 [Example 362, 5-[4-(2-Chloro-5-fluoropyrimidin-4-yl)piperazine-1-carbonyl]-6-methyl-N-(1-methylcyclopropyl)furo[2,3-d]pyrimidin-4-amine] | – | 10 to 100 nM
Cc1oc2ncnc(NC3(C)CC3)c2c1C(=O)NNc1ncc(F)cn1 [Example 363, N′-(5-Fluoropyrimidin-2-yl)-6-methyl-4-[(1-methylcyclopropyl)amino]furo[2,3-d]pyrimidine-5-carbohydrazide] | – | 100 to 1000 nM
COc1ccc(C2CCN(C(=O)c3c(C)oc4ncnc(NC5(C)CC5)c34)CC2)nn1 [Example 364, 5-[4-(6-Methoxypyridazin-3-yl)piperidine-1-carbonyl]-6-methyl-N-(1-methylcyclopropyl)furo[2,3-d]pyrimidin-4-amine] | – | 10 to 100 nM
COc1cnc(C2CCN(C(=O)c3c(C)oc4ncnc(NC5(C)CC5)c34)CC2)cn1 [Example 365, 5-[4-(5-Methoxypyrazin-2-yl)piperidine-1-carbonyl]-6-methyl-N-(1-methylcyclopropyl)furo[2,3-d]pyrimidin-4-amine] | >8 | –
COc1ccc(C2CCN(C(=O)c3c(C)oc4ncnc(NC5(C)CC5)c34)CC2)nc1 [Example 366, 5-[4-(5-Methoxypyridin-2-yl)piperidine-1-carbonyl]-6-methyl-N-(1-methylcyclopropyl)furo[2,3-d]pyrimidin-4-amine] | >8 | –
COc1cccc(C2CCN(C(=O)c3c(C)oc4ncnc(NC5(C)CC5)c34)C2)n1 (centres unmarked) [Example 367, 5-[3-(6-Methoxypyridin-2-yl)pyrrolidine-1-carbonyl]-6-methyl-N-(1-methylcyclopropyl)furo[2,3-d]pyrimidin-4-amine] | >8 | –
